Earlier results, collected in patent US20240325430A1, “MULTIPLE FOLATE FORMULATION AND USE THEREOF” (JAYMAC PHARMACEUTICAL LLC, priority 2012, published 2024).

System: hydrocephalic Texas rats
Settings: injected into hydrocephalic Texas rats during fetal development; J Neuropathol Exp Neurol 2009

Nc1nc2ncc(CNc3ccc(C(=O)N[C@@H](CCC(=O)O)C(=O)O)cc3)nc2c(=O)[nH]1 [folic acid]
incidence of hydrocephalus: significant increase
